# Read-outs that look alike come from different tables or passages of the source.
# Tests used:
# [1] = tested on: CXCR4; experiment: CXCR4 mRNA activation in HCT116 stably expressing dCas9 and MS2-FKBPx2 (WT-FKBP), qRT-PCR; assay type: cell-based, human; conditions: FIG. 6, WT FKBP system, 48 hrs
# [2] = tested on: TRE3G-GFP reporter gene; conditions: WT FKBP (MS2-FKBPx2), 48 hrs
# Experimental: HCT116 cells were transfected with TRE3G-GFP, dCas9, MS2-FKPB*x2, and TRE3G gRNA or NT gRNA. After 48 hrs of 10 nM SLF*-CEMa treatment, flow cytometry was performed and mean fluorescent value was collected. […] TRE3G-GFP, dCas9, MS2-FKBP*2, TRE3G gRNA or NT gRNA were transfected into HCT116 cells. The media was changed to media with 5 nM CEM207 together with 0 nM, 50 nM, 500 nM or 5000 nM of AP1867, respectively. After 48 hrs chemical exposure, flow cytometry was performed and the mean fluorescent value was measured in each group of cells. […] FIGS. 5D and 5E are dose curves of CEMa molecules activating the GFP reporter gene in HCT116 cells using WT FKBP and dCas9 as DNA binding module. HCT116 cells were transfected with dCas9, MS2-FKBPx2, TRE3G-GFP constructs, along with TRE3G gRNA or NT gRNA. Cells were treated with different concentrations of CEMa molecules for 48 hrs before flow cytometry was conducted. […] Error bars represent the standard deviation.
# To better understand the activity of SLF*-CEMa in the WT FKBP-based GFP reporter assay, a similar dose-response assay was conducted in HCT116 cells transfected with dCas9 and MS2-FKBPx2 (FIGS. 1D and 1E).
# Flow cytometry. All flow cytometry experiments were performed with Attune Nxt as previously described. […] Significance was determined by Student's t-test.
# [3] = tested on: CXCR4; experiment: CXCR4 mRNA activation in HCT116 stably expressing dCas9 and MS2-FKBP*x2, qRT-PCR; assay type: cell-based, human; conditions: for fold change, CXCR4 mRNA (CEM Treated vs Non-Treated): 48 hrs; for fold change, CXCR4 mRNA (CXCR4 gRNA vs NT gRNA): FIG. 3B; for fold change, CXCR4 mRNA (CXCR4 gRNA vs NT gRNA) / fold change, CXCR4 mRNA (washout vs AP1867 competition) / fold change, CXCR4 mRNA (Compare to 0 h): CEM207 25 nM; for fold change, CXCR4 mRNA (washout vs AP1867 competition): FIG. 3D; for fold change, CXCR4 mRNA (Compare to 0 h): FIG. 7A
# Outline: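 HCT116 cells stably expressing dCas9 and MS2-FKBP*x2 with CXCR4 gRNA were treated with CEMs (screen at 5 nM; 1–50 nM range). CXCR4 mRNA measured by one-step qRT-PCR after 48 h, or at 12–96 h in time course. Reversibility tested by washout after 24 h, optionally with 20 μM AP1867.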
# [4] = tested on: TRE3G-GFP reporter gene; experiment: TRE3G-GFP reporter gene activation in HCT116, dCas9 + MS2-FKBP*x2 (F36V) system, flow cytometry; assay type: cell-based, human; set-up: fold change, GFP: reference not given here; conditions: for fold change, GFP (Treated vs Non-Treated): FIG. 1E, 48 hours; for fold change, GFP: 48 hrs
structure (smiles),measurement,setting,value
"CC[C@H](C(=O)N1CCCC[C@H]1C(=O)O[C@H](CCc1ccc(OC)c(OC)c1)c1cccc(OCC(=O)NCCOCCOCCNC(=O)C[C@@H]2N=C(c3ccc(Cl)cc3)c3c(sc(C)c3C)-n3c(C)nnc32)c1)c1cc(OC)c(OC)c(OC)c1 [CEM207, (R)-1-(3-((14-((S)-4-(4-Chlorophenyl)-2,3,9-trimethyl-6H-thieno[3,2-f][1,2,4]triazolo[4,3-a][1,4]diazepin-6-yl)-2,13-dioxo-6,9-dioxa-3,12-diazatetradecyl)oxy)phenyl)-3-(3,4-dimethoxyphenyl) propyl(S)-1-((S)-2-(3,4,5-trimethoxyphenyl)butanoyl) piperidine-2-carboxylate]","fold change, CXCR4 mRNA (CXCR4 gRNA vs NT gRNA)",[1]; 50 nM,4.2 fold
same,"fold change, CXCR4 mRNA (CXCR4 gRNA vs NT gRNA)",[1]; 200 nM,9.1 fold
same,"fold change, GFP (Treated vs Non-Treated)","[2]; FIG. 5D, 10 nM",1.9 fold
same,"fold change, GFP (Treated vs Non-Treated)","[2]; FIG. 5D, 25 nM",6.5 fold
same,"fold change, GFP (Treated vs Non-Treated)","[2]; FIG. 5D, 50 nM",17.4 fold
same,"fold change, GFP (Treated vs Non-Treated)","[2]; FIG. 5D, 100 nM",20.8 fold
same,"fold change, GFP (Treated vs Non-Treated)","[2]; FIG. 5D, 200 nM",24.0 fold
same,"fold change, GFP (Treated vs Non-Treated)","[2]; FIG. 5D, 400 nM",27.2 fold
same,"fold change, GFP (Treated vs Non-Treated)","[2]; FIG. 5E, 10 nM",1.1 fold
same,"fold change, GFP (Treated vs Non-Treated)","[2]; FIG. 5E, 25 nM",1.1 fold
same,"fold change, GFP (Treated vs Non-Treated)","[2]; FIG. 5E, 50 nM",1.0 fold
same,"fold change, GFP (Treated vs Non-Treated)","[2]; FIG. 5E, 100 nM",1.1 fold
same,"fold change, GFP (Treated vs Non-Treated)","[2]; FIG. 5E, 200 nM",1.2 fold
same,"fold change, GFP (Treated vs Non-Treated)","[2]; FIG. 5E, 400 nM",1.3 fold
same,"fold change, CXCR4 mRNA (CEM Treated vs Non-Treated)","[3]; FIG. 2D, CXCR4 gRNA, 0.5 nM",2.5 fold
same,"fold change, CXCR4 mRNA (CEM Treated vs Non-Treated)","[3]; FIG. 2D, CXCR4 gRNA, 1 nM",7.4 fold
same,"fold change, CXCR4 mRNA (CEM Treated vs Non-Treated)","[3]; FIG. 2D, CXCR4 gRNA, 5 nM",28.2 fold
same,"fold change, CXCR4 mRNA (CEM Treated vs Non-Treated)","[3]; FIG. 2D, CXCR4 gRNA, 25 nM",48.2 fold
same,"fold change, CXCR4 mRNA (CEM Treated vs Non-Treated)","[3]; FIG. 2D, CXCR4 gRNA, 50 nM",34.6 fold
same,"fold change, CXCR4 mRNA (CEM Treated vs Non-Treated)","[3]; FIG. 2D, NT gRNA, 0.5 nM",1.17 fold
same,"fold change, CXCR4 mRNA (CEM Treated vs Non-Treated)","[3]; FIG. 2D, NT gRNA, 1 nM",0.77 fold
same,"fold change, CXCR4 mRNA (CEM Treated vs Non-Treated)","[3]; FIG. 2D, NT gRNA, 5 nM",1.47 fold
same,"fold change, CXCR4 mRNA (CEM Treated vs Non-Treated)","[3]; FIG. 2D, NT gRNA, 25 nM",2.21 fold
same,"fold change, CXCR4 mRNA (CEM Treated vs Non-Treated)","[3]; FIG. 2D, NT gRNA, 50 nM",1.88 fold
same,CXCR4 activation compared to dCas9-p300,"[3]; FIG. 2D, concentrations above 5 nM",higher CXCR4 activation
same,"fold change, CXCR4 mRNA (CXCR4 gRNA vs NT gRNA)",[3]; 24 h,18.6 fold
same,"fold change, CXCR4 mRNA (CXCR4 gRNA vs NT gRNA)",[3]; 48 h,13.1 fold
same,"fold change, CXCR4 mRNA (CXCR4 gRNA vs NT gRNA)",[3]; 48 h AP1867 (washout with 20 μM AP1867 after 24 hrs),8.3 fold
same,"fold change, CXCR4 mRNA (CXCR4 gRNA vs NT gRNA)",[3]; 48 h wash (media washout after 24 hrs),10.5 fold
same,"fold change, CXCR4 mRNA (CXCR4 gRNA vs NT gRNA)",[3]; 72 h,6.8 fold
same,"fold change, CXCR4 mRNA (CXCR4 gRNA vs NT gRNA)",[3]; 72 h AP1867 (washout with 20 μM AP1867 after 24 hrs),4.2 fold
same,"fold change, CXCR4 mRNA (CXCR4 gRNA vs NT gRNA)",[3]; 72 h wash (media washout after 24 hrs),5.4 fold
same,"fold change, CXCR4 mRNA (CXCR4 gRNA vs NT gRNA)",[3]; 96 h AP1867 (washout with 20 μM AP1867 after 24 hrs),2.1 fold
same,"fold change, CXCR4 mRNA (CXCR4 gRNA vs NT gRNA)",[3]; 96 h wash (media washout after 24 hrs),4.3 fold
same,"fold change, CXCR4 mRNA (washout vs AP1867 competition)",[3]; 48 h,1.2 fold
same,"fold change, CXCR4 mRNA (washout vs AP1867 competition)",[3]; 72 h,2.4 fold
same,"fold change, CXCR4 mRNA (washout vs AP1867 competition)",[3]; 96 h,0.57 fold
same,"fold change, CXCR4 mRNA (Compare to 0 h)","[3]; NT gRNA, 12 h",0.1 fold
same,"fold change, CXCR4 mRNA (Compare to 0 h)","[3]; NT gRNA, 24 h",0.6 fold
same,"fold change, CXCR4 mRNA (Compare to 0 h)","[3]; NT gRNA, 48 h",0.7 fold
same,"fold change, CXCR4 mRNA (Compare to 0 h)","[3]; NT gRNA, 48 h AP1867 (washout with 20 μM AP1867 after 24 hrs)",0.7 fold
same,"fold change, CXCR4 mRNA (Compare to 0 h)","[3]; NT gRNA, 48 h wash (media washout after 24 hrs)",0.8 fold
same,"fold change, CXCR4 mRNA (Compare to 0 h)","[3]; NT gRNA, 72 h",0.6 fold
same,"fold change, CXCR4 mRNA (Compare to 0 h)","[3]; NT gRNA, 72 h AP1867 (washout with 20 μM AP1867 after 24 hrs)",0.3 fold
same,"fold change, CXCR4 mRNA (Compare to 0 h)","[3]; NT gRNA, 72 h wash (media washout after 24 hrs)",0.4 fold
same,"fold change, CXCR4 mRNA (Compare to 0 h)","[3]; NT gRNA, 96 h",0.5 fold
same,"fold change, CXCR4 mRNA (Compare to 0 h)","[3]; NT gRNA, 96 h AP1867 (washout with 20 μM AP1867 after 24 hrs)",0.6 fold
same,"fold change, CXCR4 mRNA (Compare to 0 h)","[3]; NT gRNA, 96 h wash (media washout after 24 hrs)",0.6 fold
same,CXCR4 mRNA expression after CEM washout in comparison to cells continuously treated,"[3]; FIGS. 3C and 3D, CEM203 50 nM or CEM207 25 nM for 24 hours, then media exchange, all time points",significantly lowered CXCR4 mRNA expression
same,time point of highest (peak) CXCR4 mRNA activation,"[3]; time course 12, 24, 48, 72, 96 hrs, CXCR4 gRNA",24 h
same,"fold change, GFP (Treated vs Non-Treated)","[4]; TRE3G gRNA, 0.25 nM",2.0 fold
same,"fold change, GFP (Treated vs Non-Treated)","[4]; TRE3G gRNA, 0.5 nM",9.1 fold
same,"fold change, GFP (Treated vs Non-Treated)","[4]; TRE3G gRNA, 0.75 nM",11.5 fold
same,"fold change, GFP (Treated vs Non-Treated)","[4]; TRE3G gRNA, 1 nM",12.8 fold
same,"fold change, GFP (Treated vs Non-Treated)","[4]; TRE3G gRNA, 2.5 nM",20.6 fold
same,"fold change, GFP (Treated vs Non-Treated)","[4]; TRE3G gRNA, 5 nM",24.0 fold
same,"fold change, GFP (Treated vs Non-Treated)","[4]; TRE3G gRNA, 7.5 nM",22.5 fold
same,"fold change, GFP (Treated vs Non-Treated)","[4]; TRE3G gRNA, 10 nM",21.4 fold
same,"fold change, GFP (Treated vs Non-Treated)","[4]; TRE3G gRNA, 25 nM",21.5 fold
same,"fold change, GFP (Treated vs Non-Treated)","[4]; TRE3G gRNA, 50 nM",22.3 fold
same,"fold change, GFP (Treated vs Non-Treated)","[4]; TRE3G gRNA, 75 nM",22.5 fold
same,"fold change, GFP (Treated vs Non-Treated)","[4]; TRE3G gRNA, 100 nM",21.9 fold
same,"fold change, GFP","[4]; FIG. 5A, NT gRNA, 10 nM",0.3 fold
same,"fold change, GFP","[4]; FIG. 5A, TRE3G gRNA, 10 nM",12.0 fold
same,"fold change, GFP","[4]; FIG. 5C, NT gRNA, 0.25 nM",1.1 fold
same,"fold change, GFP","[4]; FIG. 5C, NT gRNA, 0.5 nM",1.1 fold
same,"fold change, GFP","[4]; FIG. 5C, NT gRNA, 0.75 nM",1.1 fold
same,"fold change, GFP","[4]; FIG. 5C, NT gRNA, 1 nM",1.1 fold
same,"fold change, GFP","[4]; FIG. 5C, NT gRNA, 2.5 nM",1.2 fold
same,"fold change, GFP","[4]; FIG. 5C, NT gRNA, 5 nM",1.5 fold
same,"fold change, GFP","[4]; FIG. 5C, NT gRNA, 7.5 nM",1.5 fold
same,"fold change, GFP","[4]; FIG. 5C, NT gRNA, 10 nM",1.4 fold
same,"fold change, GFP","[4]; FIG. 5C, NT gRNA, 25 nM",1.6 fold
same,"fold change, GFP","[4]; FIG. 5C, NT gRNA, 50 nM",1.6 fold
same,"fold change, GFP","[4]; FIG. 5C, NT gRNA, 75 nM",1.5 fold
same,"fold change, GFP","[4]; FIG. 5C, NT gRNA, 100 nM",1.5 fold

# Source: patent US20250177566A1, “USE OF CHEMICAL EPIGENETIC MODIFIERS TO MODULATE GENE EXPRESSION” (The University of North Carolina at Chapel Hill, priority 2022, published 2025)
